Assay results reported in patent US20240174727A1, “LONG-ACTING NATRIURETIC PEPTIDES AND USES THEREOF” (Eli Lilly and Company, priority 2022, published 2024).
Like-named read-outs stand apart in the source and are kept apart here. Numbered stars: 1 amine (or outer) side, 2 acyl side, 3 side chain; on linkers, the order of the positions; unused ones are H or OH. Bridge positions count the residues as written; N and C are the ends. Square brackets hold non-standard residues; d marks the D form. * marks the point of attachment. PEG24 = NCCOCCOCCOCCOCCOCCOCCOCCOCCOCCOCCOCCOCCOCCOCCOCCOCCOCCOCCOCCOCCOCCOCCOCCOCCC(=O)O; C20 diacid = O=C(O)CCCCCCCCCCCCCCCCCCC(=O)*; γGlu = O=C(O)[C@H](CCC(=O)[*:2])N[*:1]; 4Pal = N[C@@H](Cc1ccncc1)C(=O)O; CH2 = C([*:1])[*:2]; βAla = NCCC(=O)O

Key:
[1] = Pharmacokinetics in male Sprague Dawley rats; format: in vivo; settings: rat, sc, mean, single subcutaneous administration of 200 nMol/kg, plasma; for half-life: read-out: t½ (converted)
Method: The pharmacokinetics of the exemplary analogs are evaluated following a single subcutaneous administration of […] to male Sprague Dawley rats. Blood samples are collected over 120 hours, and resulting individual plasma concentrations are used to calculate pharmacokinetic parameters. Peptide plasma (K3 EDTA) concentrations are determined using a qualified LC/MS method that measured the intact mass of the ANP polypeptide. Each peptide and an analog as an internal standard are extracted from 100% specie specified plasma using methanol with 0.1% formic acid. A Thermo Q-Exactive, High Resolution Instrument, and a Thermo Easy Spray PepMap are combined for LC/MS detection.

human NPRA = target: T1, human NPRA (Homo sapiens, UniProt P16066); test: Human NPRA cGMP activity assay (HTRF) in HEK293 cells overexpressing NPRA; format: cell-based; settings: assay buffer with 0.1% casein
T1 construct: Full-Length cDNA Cloning and Generation of Cell Lines Overexpressing Natriuretic Peptide Receptors (NPRs); expressed in transfected cells; host or cells: Jump-in T-Rex HEK293 cells, pJTI R4 CMV-TO MCS pA vector, tetracycline induction
T1 sequence (P16066 33-1061): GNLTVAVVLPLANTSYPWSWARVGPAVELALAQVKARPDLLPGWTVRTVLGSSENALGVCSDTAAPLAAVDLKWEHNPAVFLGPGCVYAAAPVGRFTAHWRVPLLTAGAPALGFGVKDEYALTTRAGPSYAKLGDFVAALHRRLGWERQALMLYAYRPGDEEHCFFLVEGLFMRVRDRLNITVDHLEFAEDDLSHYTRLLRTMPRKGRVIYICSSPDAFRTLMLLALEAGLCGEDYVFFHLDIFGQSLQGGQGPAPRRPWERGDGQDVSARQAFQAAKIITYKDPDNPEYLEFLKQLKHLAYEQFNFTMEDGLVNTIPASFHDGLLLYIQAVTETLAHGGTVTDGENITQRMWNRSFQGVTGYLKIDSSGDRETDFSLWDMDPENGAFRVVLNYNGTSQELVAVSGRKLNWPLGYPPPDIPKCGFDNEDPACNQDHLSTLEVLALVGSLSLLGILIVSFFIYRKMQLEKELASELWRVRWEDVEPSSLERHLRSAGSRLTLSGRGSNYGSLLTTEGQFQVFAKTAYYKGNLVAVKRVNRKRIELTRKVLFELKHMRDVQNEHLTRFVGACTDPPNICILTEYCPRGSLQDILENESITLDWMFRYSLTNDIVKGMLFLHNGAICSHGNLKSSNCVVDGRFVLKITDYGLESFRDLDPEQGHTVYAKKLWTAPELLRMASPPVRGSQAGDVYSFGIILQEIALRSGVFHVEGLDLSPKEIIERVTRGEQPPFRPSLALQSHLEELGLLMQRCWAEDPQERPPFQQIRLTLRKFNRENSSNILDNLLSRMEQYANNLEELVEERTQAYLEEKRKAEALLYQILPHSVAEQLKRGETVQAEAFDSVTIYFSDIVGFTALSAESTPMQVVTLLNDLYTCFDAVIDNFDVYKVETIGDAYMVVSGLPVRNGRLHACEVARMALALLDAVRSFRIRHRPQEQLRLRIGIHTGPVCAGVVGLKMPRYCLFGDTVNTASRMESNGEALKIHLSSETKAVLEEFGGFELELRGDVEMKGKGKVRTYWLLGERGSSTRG
In short: (§1)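 Tetracycline-induced (300 ng/mL, 48 h) T-Rex HEK293 cells expressing NPRA, 4000 cells/well, treated 40 min at room temperature with polypeptide (8 points, 10 μM to 1 pM) in HBSS/HEPES buffer with 0.5 mM IBMX, pH 7.4. cGMP by HTRF, normalised to 100 nM amidated rat ANP and buffer.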

rat NPRA = target: T2, rat NPRA (Rattus norvegicus, UniProt P18910); test: Rat NPRA cGMP activity assay (HTRF) in HEK293 cells overexpressing NPRA; format: cell-based
T2 construct: Full-Length cDNA Cloning and Generation of Cell Lines Overexpressing Natriuretic Peptide Receptors (NPRs); expressed in transfected cells; host or cells: Jump-in T-Rex HEK293 cells, pJTI R4 CMV-TO MCS pA vector, tetracycline induction
T2 sequence (P18910 29-1057): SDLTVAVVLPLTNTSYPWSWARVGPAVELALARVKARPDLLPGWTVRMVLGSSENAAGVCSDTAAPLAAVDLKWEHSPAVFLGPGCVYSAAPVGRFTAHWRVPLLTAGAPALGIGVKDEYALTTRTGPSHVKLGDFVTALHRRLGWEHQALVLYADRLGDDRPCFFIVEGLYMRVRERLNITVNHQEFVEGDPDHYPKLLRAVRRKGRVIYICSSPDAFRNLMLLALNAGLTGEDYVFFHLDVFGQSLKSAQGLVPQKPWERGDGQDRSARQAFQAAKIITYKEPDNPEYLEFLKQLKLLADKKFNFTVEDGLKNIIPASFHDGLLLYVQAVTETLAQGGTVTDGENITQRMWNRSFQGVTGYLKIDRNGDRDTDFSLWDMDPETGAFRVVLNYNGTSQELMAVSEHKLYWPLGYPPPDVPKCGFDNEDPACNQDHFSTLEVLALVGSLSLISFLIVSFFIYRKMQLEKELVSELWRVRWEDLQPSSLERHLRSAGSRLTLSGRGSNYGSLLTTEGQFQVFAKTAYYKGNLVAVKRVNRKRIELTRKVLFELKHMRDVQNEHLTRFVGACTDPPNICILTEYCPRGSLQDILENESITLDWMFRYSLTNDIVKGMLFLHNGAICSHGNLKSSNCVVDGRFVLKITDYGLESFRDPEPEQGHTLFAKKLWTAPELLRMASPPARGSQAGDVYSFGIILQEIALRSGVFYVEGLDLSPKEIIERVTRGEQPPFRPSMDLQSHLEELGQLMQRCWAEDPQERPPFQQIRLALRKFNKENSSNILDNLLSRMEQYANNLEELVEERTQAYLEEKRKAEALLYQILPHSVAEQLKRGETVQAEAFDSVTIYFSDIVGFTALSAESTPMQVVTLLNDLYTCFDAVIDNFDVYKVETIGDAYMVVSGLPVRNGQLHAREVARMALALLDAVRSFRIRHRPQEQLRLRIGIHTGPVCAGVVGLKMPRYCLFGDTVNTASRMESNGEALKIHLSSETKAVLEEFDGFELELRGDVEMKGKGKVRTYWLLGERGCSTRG
In short: as §1

[2] = read-out: cGMP Assay (EC50, pM) w/Casein hNPRA

## {C20 diacid-γGlu}-EKEKEKG[PEG24]S[4Pal]RRSSCFGGRIDRIGHQSGLGCPSFRHGGKSSGAPPPS-NH2 (linker 15-31 via CH2) [Example 75]
[1]
  CL/F: 0.182 mL/min/kg
  half-life: 17 h

## {C20 diacid-γGlu}-EKEKEKG[PEG24]EK[βAla]RSSCFGGKIDRIGHQSGLGCPSFRHGSPSSGAPPPS-NH2 (linker 15-31 via CH2) [Example 7]
[1]
  CL/F: 0.055 mL/min/kg
  half-life: 19 h

## CC[C@H](C)[C@@H]1NC(=O)[C@H](CCCNC(=N)N)NC(=O)[C@H](CC(=O)O)NC(=O)[C@H]([C@@H](C)CC)NC(=O)[C@H](CCCNC(=N)N)NC(=O)CNC(=O)CNC(=O)[C@H](Cc2ccccc2)NC(=O)[C@@H](NC(=O)[C@H](CO)NC(=O)[C@H](CO)NC(=O)[C@H](CCCNC(=N)N)NC(=O)CCNC(=O)[C@H](CCCCN)NC(=O)[C@H](CCC(=O)O)NC(=O)CNC(=O)[C@H](CCCCN)NC(=O)[C@H](CCC(=O)O)NC(=O)[C@H](CCCCN)NC(=O)[C@H](CCC(=O)O)NC(=O)[C@H](CCCCN)NC(=O)[C@H](CCC(=O)O)NC(=O)CC[C@H](NC(=O)CCCCCCCCCCCCCCCCC(=O)O)C(=O)O)CSCSC[C@@H](C(=O)N2CCC[C@H]2C(=O)N[C@@H](CO)C(=O)N[C@@H](Cc2ccccc2)C(=O)N[C@@H](CCCNC(=N)N)C(=O)N[C@@H](Cc2c[nH]cn2)C(=O)NCC(=O)NCC(=O)N[C@@H](CCCCN)C(=O)N[C@@H](CO)C(=O)N[C@@H](CO)C(=O)NCC(=O)N[C@@H](C)C(=O)N2CCC[C@H]2C(=O)N2CCC[C@H]2C(=O)N2CCC[C@H]2C(=O)N[C@@H](CO)C(N)=O)NC(=O)CNC(=O)[C@H](CC(C)C)NC(=O)CNC(=O)[C@H](CO)NC(=O)[C@H](Cc2ccc(O)cc2)NC(=O)[C@H](Cc2c[nH]cn2)NC(=O)CNC1=O [Example 76]
[1]; in vivo
  half-life: 30 h
[1]
  CL/F: 0.118 mL/min/kg

## CC[C@H](C)[C@@H]1NC(=O)[C@H](CCCNC(=N)N)NC(=O)[C@H](CC(=O)O)NC(=O)[C@H]([C@@H](C)CC)NC(=O)[C@H](CCCNC(=N)N)NC(=O)[C@H](CCCCN)NC(=O)CNC(=O)[C@H](Cc2ccccc2)NC(=O)[C@@H](NC(=O)[C@H](CO)NC(=O)[C@H](CO)NC(=O)[C@H](CCCNC(=N)N)NC(=O)[C@H](CCCNC(=N)N)NC(=O)[C@H](Cc2ccncc2)NC(=O)[C@H](CO)NC(=O)COCCOCCNC(=O)COCCOCCNC(=O)COCCOCCNC(=O)COCCOCCNC(=O)COCCOCCNC(=O)COCCOCCNC(=O)CNC(=O)[C@H](CCCCN)NC(=O)[C@H](CCC(=O)O)NC(=O)[C@H](CCCCN)NC(=O)[C@H](CCC(=O)O)NC(=O)[C@H](CCCCN)NC(=O)[C@H](CCC(=O)O)NC(=O)CC[C@H](NC(=O)CCCCCCCCCCCCCCCCCCC(=O)O)C(=O)O)CSCSC[C@@H](C(=O)N2CCC[C@H]2C(=O)N[C@@H](CO)C(=O)N[C@@H](Cc2ccccc2)C(=O)N[C@@H](CCCNC(=N)N)C(=O)N[C@@H](Cc2c[nH]cn2)C(=O)NCC(=O)N[C@@H](CO)C(=O)N2CCC[C@H]2C(=O)N[C@@H](CO)C(=O)N[C@@H](CO)C(=O)NCC(=O)N[C@@H](C)C(=O)N2CCC[C@H]2C(=O)N2CCC[C@H]2C(=O)N2CCC[C@H]2C(=O)N[C@@H](CO)C(N)=O)NC(=O)CNC(=O)[C@H](CC(C)C)NC(=O)CNC(=O)[C@H](CO)NC(=O)[C@H](Cc2ccc(O)cc2)NC(=O)[C@H](Cc2c[nH]cn2)NC(=O)CNC1=O [Example 113]
Human NPRA; cGMP Assay (EC50, pM) w/Casein hNPRA
  EC50: 621 pM
Rat NPRA; cGMP Assay (EC50, pM) w/BSA rNPRA, assay buffer with 0.1% BSA
  EC50: 149000 pM

## CC[C@H](C)[C@@H]1NC(=O)[C@H](CCCNC(=N)N)NC(=O)[C@H](CC(=O)O)NC(=O)[C@H]([C@@H](C)CC)NC(=O)[C@H](CCCNC(=N)N)NC(=O)CNC(=O)CNC(=O)[C@H](Cc2ccccc2)NC(=O)[C@@H](NC(=O)[C@H](CO)NC(=O)[C@H](CO)NC(=O)[C@H](CCCNC(=N)N)NC(=O)[C@H](CCCNC(=N)N)NC(=O)[C@H](Cc2ccncc2)NC(=O)[C@H](CO)NC(=O)CNC(=O)[C@H](CCCCN)NC(=O)[C@H](CCC(=O)O)NC(=O)[C@H](CCCCN)NC(=O)[C@H](CCC(=O)O)NC(=O)[C@H](CCCCN)NC(=O)[C@H](CCC(=O)O)NC(=O)CC[C@H](NC(=O)CCCCCCCCCCCCCCCCCCC(=O)O)C(=O)O)CSSC[C@@H](C(=O)N[C@@H](CC(N)=O)C(=O)N[C@@H](CO)C(=O)N[C@@H](Cc2ccccc2)C(=O)N[C@@H](CCCNC(=N)N)C(=O)N[C@@H](Cc2ccc(O)cc2)C(N)=O)NC(=O)CNC(=O)[C@H](CC(C)C)NC(=O)CNC(=O)[C@H](CO)NC(=O)[C@H](CCC(N)=O)NC(=O)[C@H](C)NC(=O)CNC1=O [Example 11]
Human NPRA; [2]
  EC50: 1020 pM
Rat NPRA; assay buffer with 0.1% BSA, read-out: cGMP Assay (EC50, pM) w/BSA rNPRA
  EC50: 24700 pM

## {C20 diacid-γGlu}-EKEKEKGS[4Pal]RRSSCFGGRIDRIGHQSGLGCPSFRHGGKSSGAPPPS-NH2 (linker 14-30 via CH2) [Example 67]
Human NPRA; [2]
  EC50: 1220 pM
Rat NPRA; assay buffer with 0.1% casein, read-out: cGMP Assay (EC50, pM) w/Casein rNPRA
  EC50: 18800 pM
